Data published in patent publication US20260102383A1, “LPAR1 Inhibitors” (AbbVie Inc., priority 2024, published 2026).
pIC50: −log10 of the molar value. Read-outs that look alike come from different tables or passages of the source.

Molecular target: T1, human LPAR1 (Homo sapiens, UniProt Q92633)
T1 construct: host or cells: TangoEDG2-bla U2OS cells
Test: Arrestin assay (Arrestin Reporter EDG2-bla U2OS), inhibition of LPA-stimulated signal
Assay type: cell-based
Conditions: TangoEDG2-bla U2OS cells expressing human LPAR1, 0.25 μM LPA
Protocol: The inhibitory activity of compounds 15, 62, 77, 84 and 169 against LPAR1 was measured using an Arrestin assay in U2OS cells expressing human LPAR1.
FreeStyle media was warmed in a 37° C. water bath. Cryo-preserved vial(s) of TangoEDG2-bla U2OS cells were rapidly thawed in a 37° C. water bath. The thawed cells were added to FreeStyle media and cells were pelleted at 300×g for 5 minutes. The supernatant was aspirated, and cells were resuspended in FreeStyle media. Cell density was adjusted to 0.25×10^6 cells/mL. Cells (1×10^4 in 40 μL) were added to each well of Greiner 384 well black cell plate(s). Cell plate(s) were placed in a humidified 37° C./5% CO2 incubator for 18-20 hours. Dilutions of test compound were prepared at 6× final concentration; 12-point, 3-fold dilutions using HH Buffer (1×HBSS plus 20 mM HEPES). The 6× test compound was then added to the cell plate(s) at 10 μL/well. The final concentration ranged from 10 μM to 0.00006 μM. Cell plate(s) were incubated in a humidified 37° C./5% CO2 incubator for 1 hour. During the incubation, 6×LPA was prepared at 1.5 μM in 0.1% BSA HH Buffer. After the 1-hour incubation of test compound with cells, the LPA was added to the cell plate(s) at 10 μL/well (final LPA concentration of 0.25 μM). Cell plate(s) were returned to a humidified 37° C./5% CO2 incubator for 3 hours. The Development solution was made up per the LiveBLAzerFRET B/G kit protocol. The Development solution was added to the cell plate(s) at 10 μL/well. Cell plates were incubated in the dark at room temperature for 2 hours. Plate(s) were read on an Envision Plate Reader (Perkin Elmer) to read fluorescence; excitation at 409 nm with emission at 460 nm and 530 nm. Raw Data for analysis is the ratio of emission at 460 nm divided by emission 530 nm. The formula used to determine % Inhibition is as follows (1−(Raw Data−Low Average)/(High Average−Low Average))*100. Percent Inhibition was plotted to determine IC50 value with GraphPad Prism 9.5.0 software using Variable slope 4-parameter curve fit analysis.
Additional compounds of the present disclosure were synthesized in a manner similar to the compounds described above and understood by a person of ordinary skill in the art. The inhibitory activity of the compounds of the present disclosure against LPAR1 was measured using the above-referenced Arrestin Assay protocol.

[1] = read-out: Arrestin Reporter EDG2-bla U2OS Human Merged IC50

T1 sequence (Q92633 whole entry): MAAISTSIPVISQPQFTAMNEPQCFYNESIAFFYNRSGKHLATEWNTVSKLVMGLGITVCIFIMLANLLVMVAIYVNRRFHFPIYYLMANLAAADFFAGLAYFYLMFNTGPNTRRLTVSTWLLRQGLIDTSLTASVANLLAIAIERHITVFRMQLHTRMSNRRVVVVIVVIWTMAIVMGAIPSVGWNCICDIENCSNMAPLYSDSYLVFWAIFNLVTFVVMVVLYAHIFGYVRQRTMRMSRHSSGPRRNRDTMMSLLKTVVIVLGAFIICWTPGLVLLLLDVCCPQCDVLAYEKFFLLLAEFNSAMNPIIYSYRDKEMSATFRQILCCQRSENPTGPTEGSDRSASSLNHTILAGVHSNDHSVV

Structure (SMILES)	pIC50 [1]	pIC50 (read-out: Arrestin Reporter EDG2-bla U2OS Human IC50)
CC(C)c1ccnn1C1(C(=O)Nc2ccc(Cl)cc2OC(F)F)CCN(CC(C(=O)O)c2cnn(C)c2)CC1 (stereo not shown) [Compound 147, 3-[4-[[4-chloro-2-(difluoromethoxy)phenyl]carbamoyl]-4-(5-isopropylpyrazol-1-yl)-1-piperidyl]-2-(1-methylpyrazol-4-yl)propanoic acid]	6.78	–
CC(C)c1ccnn1C1(C(=O)Nc2ccc(Cl)cc2OC(F)F)CCN(CC(C(=O)O)C2CCOC(C)(C)C2)CC1 (stereo not shown) [Compound 171, 3-[4-[[4-chloro-2-(difluoromethoxy)phenyl]carbamoyl]-4-(5-isopropylpyrazol-1-yl)-1-piperidyl]-2-(2,2-dimethyltetrahydropyran-4-yl)propanoic acid]	7.03	–
CC(C)c1ccnn1C1(C(=O)Nc2ccc(Cl)cc2OC(F)F)CCN([C@H]2C[C@](C#N)(C(=O)O)C2)CC1 [Compound 111, (1r,3r)-3-[4-[[4-chloro-2-(difluoromethoxy)phenyl]carbamoyl]-4-(5-isopropylpyrazol-1-yl)-1-piperidyl]-1-cyano-cyclobutanecarboxylic acid]	6.66	–
CC(C)c1ccnn1C1(C(=O)Nc2ccc(Cl)cc2OC(F)F)CCN(CC(C(=O)O)c2cccnc2)CC1 (stereo not shown) [Compound 17, 3-[4-[[4-chloro-2-(difluoromethoxy)phenyl]carbamoyl]-4-(5-isopropylpyrazol-1-yl)-1-piperidyl]-2-(3-pyridyl)propanoic acid]	7.84	–
COc1ccc(C(CN2CCC(C(=O)Nc3ccc(Cl)cc3OC(F)F)(n3nccc3C(C)C)CC2)C(=O)O)cc1 (stereo not shown) [Compound 19, 3-[4-[[4-chloro-2-(difluoromethoxy)phenyl]carbamoyl]-4-(5-isopropylpyrazol-1-yl)-1-piperidyl]-2-(4-methoxyphenyl) propanoic acid]	8.02	–
COc1cnn(C[C@H](CN2CCC(C(=O)Nc3ccc(Cl)cc3OC(F)F)(n3nccc3C(C)C)CC2)C(=O)O)c1 [Compound 202, (2S)-2-[[4-[[4-chloro-2-(difluoromethoxy)phenyl]carbamoyl]-4-(5-isopropylpyrazol-1-yl)-1-piperidyl]methyl]-3-(4-methoxypyrazol-1-yl)propanoic acid]	7.34	–
COc1ccc(C(C)(CN2CCC(C(=O)Nc3ccc(Cl)cc3OC(F)F)(n3nccc3C(C)C)CC2)C(=O)O)cc1 (stereo not shown) [Compound 50, 3-[4-[[4-chloro-2-(difluoromethoxy)phenyl]carbamoyl]-4-(5-isopropylpyrazol-1-yl)-1-piperidyl]-2-(4-methoxyphenyl)-2-methyl-propanoic acid]	7.19	–
CC(C)c1ccnn1C1(C(=O)Nc2ccc(Cl)cc2OC(F)F)CCN([C@H]2CO[C@H](C(=O)O)C2)CC1 (single isomer, unassigned) [Compound 140]	6.88	–
CC(C)c1c(F)cnn1C1(C(=O)Nc2ccc(Cl)cc2OC(F)F)CCN([C@H]2CO[C@@H](C(=O)O)C2)CC1 [Compound 214, (2R,4R)-4-[4-[[4-chloro-2-(difluoromethoxy)phenyl]carbamoyl]-4-(4-fluoro-5-isopropyl-pyrazol-1-yl)-1-piperidyl]tetrahydrofuran-2-carboxylic acid]	7.12	–
CC1(C)CCc2cnn(C3(C(=O)Nc4ccc(Cl)cc4OC(F)F)CCN(CC4(C(=O)O)CCOCC4)CC3)c21 [Compound 35, 4-[[4-[[4-chloro-2-(difluoromethoxy)phenyl]carbamoyl]-4-(6,6-dimethyl-4,5-dihydrocyclopenta[c]pyrazol-1-yl)-1-piperidyl]methyl]tetrahydropyran-4-carboxylic acid]	7.36	–

Now from value to molecule:

pIC50 [1]	pIC50 (read-out: Arrestin Reporter EDG2-bla U2OS Human IC50)	Structure (SMILES)
–	7.36	CC(C)c1ccnn1C1(C(=O)Nc2ccc(Cl)cc2OC(F)F)CCN([C@H]2C[C@@](C)(C(=O)O)C2)CC1 [Compound 77, (1s,38)-3-[4-[[4-chloro-2-(difluoromethoxy)phenyl]carbamoyl]-4-(5-isopropylpyrazol-1-yl)-1-piperidyl]-1-methyl-cyclobutanecarboxylic acid]
8.26	–	CC(C)c1ccnn1C1(C(=O)Nc2ccc(Cl)cc2OC(F)F)CCN(CC2(C(=O)O)CCN(C(=O)OCC(C)(C)C)CC2)CC1 [Compound 90, 4-[[4-[[4-chloro-2-(difluoromethoxy)phenyl]carbamoyl]-4-(5-isopropylpyrazol-1-yl)-1-piperidyl]methyl]-1-(2,2-dimethylpropoxycarbonyl) piperidine-4-carboxylic acid]
7.83	–	CC(C)c1ccnn1C1(C(=O)Nc2ccc(Cl)cc2OC(F)F)CCN(CC2(C(=O)O)CCN(C(=O)C34CC(C3)C4)CC2)CC1 [Compound 69, 1-(bicyclo[1.1.1]pentane-1-carbonyl)-4-[[4-[[4-chloro-2-(difluoromethoxy)phenyl]carbamoyl]-4-(5-isopropylpyrazol-1-yl)-1-piperidyl]methyl]piperidine-4-carboxylic acid]
6.98	–	CC(C)c1ccnn1C1(C(=O)Nc2ccc(Cl)cc2OC(F)F)CCN(CC2(C(=O)O)CCN(C(=O)C3CCOCC3)CC2)CC1 [Compound 71, 4-[[4-[[4-chloro-2-(difluoromethoxy)phenyl]carbamoyl]-4-(5-isopropylpyrazol-1-yl)-1-piperidyl]methyl]-1-(tetrahydropyran-4-carbonyl)piperidine-4-carboxylic acid]
7.14	–	CC(C)c1ccnn1C1(C(=O)Nc2ccc(Cl)cc2OC(F)F)CCN([C@H]2C[C@](O)(C(=O)O)C2)CC1 [Compound 164, (1s,3s)-3-[4-[[4-chloro-2-(difluoromethoxy)phenyl]carbamoyl]-4-(5-isopropylpyrazol-1-yl)-1-piperidyl]-1-hydroxy-cyclobutanecarboxylic acid]
7.93	–	CC(C)c1ccnn1C1(C(=O)Nc2ccc(Cl)cc2OC(F)F)CCN(C[C@]2(C(=O)O)CC[C@@H](O)CC2)CC1 (single isomer, unassigned) [Compound 95, (1s,4s)-1-[[4-[[4-chloro-2-(difluoromethoxy)phenyl]carbamoyl]-4-(5-isopropylpyrazol-1-yl)-1-piperidyl]methyl]-4-hydroxy-cyclohexanecarboxylic acid]
7.11	–	CO[C@H]1CC[C@@H]([C@H](CN2CCC(C(=O)Nc3ccc(Cl)cc3OC(F)F)(n3nccc3C(C)C)CC2)C(=O)O)CC1 (single isomer, unassigned) [Compound 184]
7.29	–	CC(C)c1c(F)cnn1C1(C(=O)Nc2ccc(Cl)cc2OC(F)F)CCN(C[C@]2(C(=O)O)CC[C@@H](O)CC2)CC1 [Compound 162, (1s,4s)-1-[[4-[[4-chloro-2-(difluoromethoxy)phenyl]carbamoyl]-4-(4-fluoro-5-isopropyl-pyrazol-1-yl)-1-piperidyl]methyl]-4-hydroxy-cyclohexanecarboxylic acid]
7.32	–	CC(C)c1ccnn1C1(C(=O)Nc2ccc(Cl)cc2OC(F)F)CCN(C[C@@](C)(C(=O)O)C2CCOCC2)CC1 (single isomer, unassigned) [Compound 78, (2.5)-3-[4-[[4-chloro-2-(difluoromethoxy)phenyl]carbamoyl]-4-(5-isopropylpyrazol-1-yl)-1-piperidyl]-2-methyl-2-tetrahydropyran-4-yl-propanoic acid]
7.52	–	CC(C)c1ccnn1C1(C(=O)Nc2ccc(Cl)cc2OC(F)F)CCN(CC2(C(=O)O)CCN(C(=O)C3CCC3)CC2)CC1 [Compound 44, 4-[[4-[[4-chloro-2-(difluoromethoxy)phenyl]carbamoyl]-4-(5-isopropylpyrazol-1-yl)-1-piperidyl]methyl]-1-(cyclobutanecarbonyl) piperidine-4-carboxylic acid]
7.12	–	CC(C)c1ccnn1C1(C(=O)Nc2ccc(Cl)cc2OC(F)F)CCN(CC2(C(=O)O)CCN(C(=O)O[C@@H]3CCOC3)CC2)CC1 [Compound 110, 4-[[4-[[4-chloro-2-(difluoromethoxy)phenyl]carbamoyl]-4-(5-isopropylpyrazol-1-yl)-1-piperidyl]methyl]-1-[(3R)-tetrahydrofuran-3-yl]oxycarbonyl-piperidine-4-carboxylic acid]
7.64	–	CC(C)c1c(F)cnn1C1(C(=O)Nc2ccc(Cl)cc2OC(F)F)CCN(CC2(C(=O)O)CCOCC2)CC1 [Compound 66, 4-[[4-[[4-chloro-2-(difluoromethoxy)phenyl]carbamoyl]-4-(4-fluoro-5-isopropyl-pyrazol-1-yl)-1-piperidyl]methyl]tetrahydropyran-4-carboxylic acid]
